Test results published in patent US7264314B2, “Adrenocorticotropic hormone analogs and related methods” (priority 2004, dated 2007).

Columns and labels:
[1] = test system: serum corticosterone in dexamethasone-suppressed mice; assay: in vivo Serum Corticosteroid Induction Assay; design: species or system FVB/N mice; details: for Percent reduction in serum corticosteroid: compared to unmodified mACTH(1–24), 1 μg s.c., blood one hour after administration
Procedure: An in vivo Serum Corticosteroid Induction Assay measures the level of corticosteroid or corticosterone in the blood stream of a subject. More specifically, the in vivo Serum Corticosteroid Induction Assay can include the following steps: first, an agent to suppress endogenous ACTH production was administered to a mouse subject, such as an intraperitoneal injection of dexamethasone; second, after waiting a suitable period of time for suppression of endogenous ACTH production (e.g., 1.5–2.0 hours), a test compound can be administered to the mouse by a suitable method, such as intraperitoneal or subcutaneous injection; and third, after waiting a suitable period of time (e.g., 1 hour) for action of the injected test compound, a blood sample can be taken from the subject and the level of serum corticosterone can be determined by a suitable method, such as a competitive radioimmunoassay using ^125I RIA kit (ICN, Costa Mesa, Calif.). Example 1 describes a murine in vivo Serum Corticosteroid Induction Assay in detail.
The corticosteroid or corticosterone secretion induced in vivo by an ACTH analog compound was compared to the level of corticosteroid secretion produced by an unmodified ACTH compound by measuring blood serum corticosteroid after administering either the ACTH or ACTH analog as test compounds. […] ACTH analog compositions with decreased function were identified by measuring corticosterone levels using standard radioimmunoassay (RIA) analysis on blood samples collected one hour after administering the mACTH(1–24) or ACTH analog compound to dexamethasone-suppressed mice. In FIG. 1, the potency of various ACTH analog peptides is expressed as per cent induction of corticosterone, with mouse ACTH being 100%. […] The percent of corticosterone induction 12 of ACTH analog Compounds in Samples 2–10 are shown as a percentage of the concentration of serum corticosterone 20 measured for unmodified mACTH(1–24) in the in vivo Serum Corticosteroid Adrenal Induction Assay. The structural modifications and measured percentage reduction in serum measured for Samples 2–10 in FIG. 1 are shown in Table 3 below.
The in vivo Serum Corticosteroid Induction Assay was performed according the following method. First, two to three month-old male FVB/N mice from our colony, five per group, were injected intraperitoneally with dexamethasone (0.4 mg/0.1 ml PBS per mouse; Sigma, St. Louis, Mo.) to suppress their endogenous ACTH production. See Hajos, G T et al., “Studies of the potency of polypeptides with ACTH action by a new method based on continuous measurement of plasma corticosterone,” Steroids Lipids Res 3:225–228 (1972), Costa, J L, et al., “Mutational analysis of evolutionarily conserved ACTH residues,” Gen Comp Endocrinol, 136:12–16 (2004), and Karpac, J, et al., “Development, Maintenance, and Function of the Adrenal Gland in Early Postnatal Pro-opiomelanocortin Null Mutant Mice,” Endocrinology (2005), published online ahead of print Feb. 24, 2005, all of which are incorporated herein by reference.
Second, ninety to one hundred twenty minutes later, the dexamethasone-suppressed mice were injected subcutaneously between the shoulder blades with either unmodified mACTH(1–24) or one of several ACTH analog peptide compounds (1 μg/0.1 mL PBS/0.5% BSA), or with vehicle alone (control) (0.1 mL PBS/0.5% BSA). The following ACTH analog peptide compounds were administered to separate mice: 1: murine ACTH1–24; 2: V26F,E30K; 3: P19W,K21E,Y23R; 4: E30K,P36R; 5: ALA19–24; 6: V26F,P36R; 7: P19W, K21E; 8: P19W,K21A,delY23; 9: P19W,K21A; 10: KRRP16-19RMW (AT814) (SEQ ID NO:20).
Third, one hour later, blood was collected within less than 1 minute from a small incision in the tail, and serum was flash-frozen and stored at −80° C. until assayed. Serum corticosterone was determined by competitive radioimmunoassay (^125I RIA kit; ICN, Costa Mesa, Calif.) according to the manufacturer's recommendations. One microliter of serum was used per assay sample. […]

[2] = test system: corticosterone production by explanted mouse adrenal halves; assay: in vitro Serum-free Adrenal Inhibition Assay; type: cell-based; details: in vivo by Example 1, in vitro by Example 4
Procedure: A series of separate in vitro Serum-Free Adrenal Corticosteroid Inhibition Assay were performed to identify ACTH analogs that inhibit ACTH-induced adrenal hormone production in vitro. The concentration of corticosterone was measured according to the procedure of Example 4 in a serum-free culture medium containing explanted adrenal membrane and unmodified ACTH, AT814 ACTH analog (SEQ ID NO:20), or a combination of ACTH and AT814 at 100 ng/mL each. […] Corticosterone levels were taken at 2.0 hours after the adrenal membrane was placed in the serum free M199 medium, and each corticosterone level in Table 5 is an average of five samples.
The in vitro Serum-free Adrenal Inhibition Assay was performed according the following method. First, adrenals were removed from mice, dissected free of fat, and cut in half. See Costa, J L, et al., “Mutational analysis of evolutionarily conserved ACTH residues,” Gen Comp Endocrinol. 136:12–16 (2004); and Weber, M M, et al., “Postnatal overexpression of insulin-like growth factor II in transgenic mice is associated with adrenocortical hyperplasia and enhanced steroidogenesis,” Endocrinology 140:1537–1543 (1999), incorporated herein by reference.
Second, each adrenal half was placed into an individual well of a 4-well dish, one dish per mouse. Adrenal halves were incubated at 5% CO2, 37° C., in 0.5 ml serum-free medium (M199; Invitrogen) for 30 minutes to equilibrate.
Third, medium was removed and replaced by 0.5 ml M199 containing ACTH, AT814, or both, at 100 ng/ml each; controls had no peptides added.
Fourth, after 2 hours of incubation, the medium was removed, pooled for all four halves from each mouse, and assayed by corticosterone using standard RIA methods. corticosterone was determined by competitive radioimmunoassay (^125I RIA kit; ICN, Costa Mesa, Calif.) according to the manufacturer's recommendations. One microliter of serum was used per assay sample. Samples were run in duplicates.

Substance	Percent reduction in serum corticosteroid [1] [%]	also measured
(E30K, P36R)mACTH (SYSMEHFRWGKPVGKKRRPVKVYPNVAENKSAEAFRLEF; Corticotropin; UniProt P01193 124-162, looked up, variant E30K P36R) [Sample 4]	41.5	
(P19W, K21A)mACTH (SYSMEHFRWGKPVGKKRRWVAVYPNVAENESAEAFPLEF; Corticotropin; UniProt P01193 124-162, looked up, variant P19W K21A) [Sample 9]	83.4	
(P19W, K21A, delY23)mACTH (SYSMEHFRWGKPVGKKRRWVAVPNVAENESAEAFPLEF; Corticotropin; UniProt P01193 124-162, looked up, variant P19W K21A Y23*) [Sample 8]	76.0	
(P19W, K21E)mACTH (SYSMEHFRWGKPVGKKRRWVEVYPNVAENESAEAFPLEF; Corticotropin; UniProt P01193 124-162, looked up, variant P19W K21E) [Sample 7]	61.1	
(P19W, K21E, Y23R)mACTH (SYSMEHFRWGKPVGKKRRWVEVRPNVAENESAEAFPLEF; Corticotropin; UniProt P01193 124-162, looked up, variant P19W K21E Y23R) [Sample 3]	36.5	
(PVKVYP19-24AAAAA)mACTH [Sample 5]	51	in vivo activity in excess of the in vitro activity of unmodified mACTH (FIG. 5) ([1]; method of Example 1): about 50%; in vivo activity, % corticosterone induction relative to mACTH(1–24) (FIG. 5) ([1]; method of Example 1): greater relative to both mACTH and to other ACTH analogs; in vitro activity compared with in vivo activity (FIG. 5) [2]: increased serum half life measured in vivo
(V26F, E30K)mACTH (SYSMEHFRWGKPVGKKRRPVKVYPNFAENKSAEAFPLEF; Corticotropin; UniProt P01193 124-162, looked up, variant V26F E30K) [Sample 2]	18.3	
(V26F, P36R)mACTH (SYSMEHFRWGKPVGKKRRPVKVYPNFAENESAEAFRLEF; Corticotropin; UniProt P01193 124-162, looked up, variant V26F P36R) [Sample 6]	59.3	
